In paper PMC12314110, “Evaluation of Potential Effects of CYP3A Inhibition and CYP3A Induction on the Pharmacokinetics of Fruquintinib in Healthy Subjects” (Clinical Pharmacology in Drug Development, 2025):

Tests used:
[1] = Part A: PK of single-dose fruquintinib alone and with itraconazole (CYP3A inhibition); format: in vivo, human; details: for MPR AUC0‐inf (metabolite‐to‐parent ratio) / MPR AUC0‐t (metabolite‐to‐parent ratio) / MPR Cmax (metabolite‐to‐parent ratio): M11 to fruquintinib; for MPR AUC0‐inf (metabolite‐to‐parent ratio) / MPR AUC0‐t (metabolite‐to‐parent ratio) / MPR Cmax (metabolite‐to‐parent ratio) / Cmax / Tmax / half-life / AUC: Part A; for MPR AUC0‐inf (metabolite‐to‐parent ratio) / MPR AUC0‐t (metabolite‐to‐parent ratio) / MPR Cmax (metabolite‐to‐parent ratio) / Cmax / half-life / AUC: arithmetic mean (SD); for Cmax / Tmax / half-life / AUC: both sexes, human, oral, metabolite M11 in plasma; for Cmax: read-out: Cmax; for Tmax: median (minimum‐maximum); for half-life / AUC: plasma
Source text: (§1) This was a single‐center, open‐label, 2‐part (Part A and Part B), 2‐period, fixed‐sequence study conducted in healthy male and female subjects. Parts A and B evaluated the effect of the CYP3A inhibitor itraconazole and the CYP3A inducer rifampin on the PK profile of fruquintinib, respectively. Each part consisted of a screening phase, a treatment phase (Period 1 and Period 2), and an end‐of‐study (EOS) phase. Screening occurred within 21 days before the first study drug administration. There was at least a 14‐day washout of fruquintinib between treatment periods. PK samples were collected before dosing and over 168 hours following the fruquintinib dose in Part A (with itraconazole) and Part B (with rifampin). Part A and Part B were enrolled independently.
In Part A, subjects were administered fruquintinib alone in Treatment Period 1 and in combination with itraconazole in Treatment Period 2. Study Day 1 was considered the start of Treatment Period 1, and Study Day 15 was considered the start of Treatment Period 2. On Study Day 1, subjects received a single dose of fruquintinib 5 mg by mouth under fasted conditions (subjects fasted for at least 10 hours before fruquintinib dosing and 4 hours after), and on Study Day 19 subjects received a second single dose of fruquintinib 5 mg by mouth under fasted conditions, alongside itraconazole. On Study Day 15, subjects began a regimen of itraconazole 200 mg by mouth twice a day, followed by once daily dosing on Study Days 16‐25. A dose of 200 mg was selected, with a loading dose as part of a 5‐day lead‐in (twice daily for 1 day, once daily for 4 days) to achieve appropriate inhibition of CYP3A before dosing with fruquintinib.[10] Once‐daily dosing of itraconazole for an additional 5 days throughout the fruquintinib PK sampling period was continued to maintain CYP3A inhibition.[11]
As itraconazole oral bioavailability is maximal when the capsules are taken immediately after a full meal,[12] it was administered under fed conditions except when coadministered with fruquintinib on Study Day 19. Itraconazole doses were administered 30 minutes after the start of breakfast on Study Days 15‐18 and Study Days 20‐25. On Study Day 19, subjects received both treatments under fasted conditions, and itraconazole was administered 1 hour before administration of a single dose of fruquintinib 5 mg by mouth. Subjects were discharged after completion of EOS procedures on Study Day 26 or at early withdrawal.
(§2) Blood samples for determination of fruquintinib and metabolite M11 plasma concentrations were collected before dosing and at 0.5, 1, 1.5, 2, 3, 4, 6, 8, 12, 24, 36, 48, 72, 96, 120, 144, and 168 hours after fruquintinib dosing. Plasma samples were analyzed by LabCorp Bioanalytical (Indianapolis, IN) using a validated liquid chromatography with tandem mass spectrometry assay method with an analytical range of 1.00 ng/mL (lower limit of quantitation) to 750 ng/mL (upper limit of quantitation) for both fruquintinib and M11.[6] Interrun variability was 6.3% or less and 13.8% or less for fruquintinib and M11, respectively. Quality control samples at 4 concentrations (3, 30, 300, and 600 ng/mL) were assayed along with study samples, and the bias quality control sample concentrations deviated by ±2.0% and ±2.7% from the nominal concentrations for fruquintinib and M11, respectively.
PK parameters were determined by noncompartmental analysis and included maximum plasma concentration (Cmax); time to reach Cmax (tmax); area under the plasma concentration‐time curve (AUC) from time 0 to the time of the last measurable concentration (AUC0‐t); AUC from time 0 to infinity (AUC0‐inf); half‐life (t1/2); and the metabolite‐to‐parent ratios for Cmax, AUC0‐t, and AUC0‐inf. Apparent oral clearance and volume of distribution were also estimated for fruquintinib. […]

[2] = Part B: PK of single-dose fruquintinib alone and with rifampin (CYP3A induction); format: in vivo, human; details: for MPR AUC0‐inf (metabolite‐to‐parent ratio) / MPR AUC0‐t (metabolite‐to‐parent ratio) / MPR Cmax (metabolite‐to‐parent ratio): M11 to fruquintinib; for MPR AUC0‐inf (metabolite‐to‐parent ratio) / MPR AUC0‐t (metabolite‐to‐parent ratio) / MPR Cmax (metabolite‐to‐parent ratio) / Cmax / half-life / AUC / Tmax: Part B; for MPR AUC0‐inf (metabolite‐to‐parent ratio) / MPR AUC0‐t (metabolite‐to‐parent ratio) / MPR Cmax (metabolite‐to‐parent ratio) / Cmax / half-life / AUC: arithmetic mean (SD); for Cmax / half-life / AUC / Tmax: metabolite M11 in plasma; for Cmax: read-out: Cmax; for Tmax: median (minimum‐maximum)
Source text: as §1
In Part B, subjects were administered fruquintinib alone in Treatment Period 1 and in combination with rifampin in Treatment Period 2. Study Day 1 was considered as the start of Treatment Period 1, and Study Day 8 was considered as the start of Treatment Period 2. On Study Day 1, a single dose of fruquintinib 5 mg by mouth was administered under fasted conditions, and on Study Day 15, a single dose of fruquintinib 5 mg was administered by mouth under fasted conditions alongside rifampin. Starting on Study Day 8, rifampin 600 mg was dosed by mouth once daily for 14 consecutive days, 7 days before fruquintinib dosing and 6 days after fruquintinib dosing, to ensure that induction was maintained throughout the PK sampling period. Subjects therefore received rifampin from Study Day 8 to Study Day 21. Absorption of rifampin is reduced by approximately 30% when the drug is ingested with food.[13] Therefore, rifampin was administered at least 1 hour before breakfast when given alone and under fasted conditions when administered with fruquintinib. Breakfast was given at least 1 hour after the rifampin doses on Study Days 8‐14 and Study Days 16‐21. On Study Day 15, subjects received both treatments under fasted conditions, and rifampin was administered 1hour before administration of a single dose of fruquintinib 5 mg by mouth. Subjects were discharged after completion of EOS procedures on Study Day 22 or at early withdrawal.
as §2
PK parameters were determined by noncompartmental analysis and included maximum plasma concentration (Cmax); time to reach Cmax (tmax); area under the plasma concentration‐time curve (AUC) from time 0 to the time of the last measurable concentration (AUC0‐t); AUC from time 0 to infinity (AUC0‐inf); half‐life (t1/2); and the metabolite‐to‐parent ratios for Cmax, AUC0‐t, and AUC0‐inf. Apparent oral clearance and volume of distribution were also estimated for fruquintinib.
For Part A, the effect of itraconazole based on the PK parameters of fruquintinib was evaluated using a linear mixed‐effect model with treatment (ie, fruquintinib with itraconazole [test] and fruquintinib alone [reference]) as fixed effects and subject as a random effect. A similar inferential analysis was performed for Part B, but fruquintinib with rifampin was the test group. […]

[3] = fruquintinib 5 mg + itraconazole 200 mg, n = 13
[4] = fruquintinib 5 mg + itraconazole 200 mg, n = 14
[5] = fruquintinib alone 5 mg, n = 14
[6] = coadministration of itraconazole
[7] = fruquintinib 5 mg + rifampin 600 mg, n = 13
[8] = fruquintinib alone 5 mg, n = 13

Compound: COc1cc2ncnc(Oc3ccc4c(C(N)=O)c(C)oc4c3)c2cc1OC [M11]
- MPR AUC0‐inf (metabolite‐to‐parent ratio) [1, 3]: 0.177 (0.0371)
- MPR AUC0‐t (metabolite‐to‐parent ratio) [1, 4]: 0.141 (0.0301)
- MPR Cmax (metabolite‐to‐parent ratio) [1, 4]: 0.0579 (0.0155)
- MPR AUC0‐inf (metabolite‐to‐parent ratio) ([1]; fruquintinib alone 5 mg, n = 12): 0.336 (0.0766)
- MPR AUC0‐t (metabolite‐to‐parent ratio) [1, 5]: 0.291 (0.0745)
- MPR Cmax (metabolite‐to‐parent ratio) [1, 5]: 0.121 (0.0358)
- Cmax [1, 4]: 6.7 ng/mL
- Tmax [1, 4]: 47.9 h
- Cmax [1, 5]: 15.2 ng/mL
- Tmax [1, 5]: 72 h
- half-life ([1]; 5 mg, fruquintinib alone 5 mg, n = 12): 58.6 h
- AUC ([1]; 5 mg, fruquintinib alone 5 mg, n = 12, read-out: AUC0‐inf): 2000 ng·h/mL
- AUC ([1]; 5 mg, fruquintinib alone 5 mg, n = 14, read-out: AUC0‐t): 1580 ng·h/mL
- half-life [1, 3]: 70.5 h
- AUC ([1]; fruquintinib 5 mg + itraconazole 200 mg, n = 13, read-out: AUC0‐inf): 1100 ng·h/mL
- AUC ([1]; fruquintinib 5 mg + itraconazole 200 mg, n = 14, read-out: AUC0‐t): 816 ng·h/mL
- decrease of M11 AUC0‐inf [1, 6]: 44%
- decrease of M11 AUC0‐t [1, 6]: 48%
- decrease of M11 Cmax [1, 6]: 55%
- MPR AUC0‐inf (metabolite‐to‐parent ratio) [2, 7]: 1.13 (0.269)
- MPR AUC0‐t (metabolite‐to‐parent ratio) [2, 7]: 1.12 (0.266)
- MPR Cmax (metabolite‐to‐parent ratio) [2, 7]: 0.312 (0.0975)
- MPR AUC0‐inf (metabolite‐to‐parent ratio) [2, 8]: 0.379 (0.0944)
- MPR AUC0‐t (metabolite‐to‐parent ratio) [2, 8]: 0.295 (0.0848)
- MPR Cmax (metabolite‐to‐parent ratio) [2, 5]: 0.117 (0.0462)
- Cmax ([2]; both sexes, human, oral, fruquintinib 5 mg + rifampin 600 mg, n = 13): 31.1 ng/mL
- Cmax ([2]; both sexes, human, oral, fruquintinib alone 5 mg, n = 14): 13.7 ng/mL
- half-life ([2]; both sexes, human, plasma, oral, 5 mg, fruquintinib alone 5 mg, n = 13): 71.8 h
- AUC ([2]; both sexes, human, plasma, oral, 5 mg, fruquintinib alone 5 mg, n = 13, read-out: AUC0‐inf): 2160 ng·h/mL
- AUC ([2]; both sexes, human, plasma, oral, 5 mg, fruquintinib alone 5 mg, n = 13, read-out: AUC0‐t): 1610 ng·h/mL
- Tmax ([2]; both sexes, human, plasma, oral, 5 mg, fruquintinib alone 5 mg, n = 14, read-out: tmax): 48 h
- half-life ([2]; both sexes, human, plasma, oral, fruquintinib 5 mg + rifampin 600 mg, n = 13): 25.1 h
- AUC ([2]; both sexes, human, plasma, oral, fruquintinib 5 mg + rifampin 600 mg, n = 13, read-out: AUC0‐inf): 2200 ng·h/mL
- AUC ([2]; both sexes, human, plasma, oral, fruquintinib 5 mg + rifampin 600 mg, n = 13, read-out: AUC0‐t): 2130 ng·h/mL
- Tmax ([2]; both sexes, human, plasma, oral, fruquintinib 5 mg + rifampin 600 mg, n = 13, read-out: tmax): 23 h
- increase of M11 Cmax ([2]; coadministration of fruquintinib with rifampin versus fruquintinib alone): 2.3 fold
- Tmax [2, 7]: 22.9 (22.9–46.9) hour
